{"source": "patent US20190307818A1", "about": "“NOVEL ANTIMICROBIAL COMPOSITIONS AND METHODS OF USE” (priority 2016, published 2019)", "key": {"[1]": {"molecular_target": "T1, LasR (Pseudomonas aeruginosa, UniProt P25084)", "T1 construct": "expressed in transfected cells; host or cells: E. coli TOP10 carrying pBAD-A 6xHIS-lasR and pCS26 plasB-luxCDABE", "T1 sequence (P25084 whole entry)": "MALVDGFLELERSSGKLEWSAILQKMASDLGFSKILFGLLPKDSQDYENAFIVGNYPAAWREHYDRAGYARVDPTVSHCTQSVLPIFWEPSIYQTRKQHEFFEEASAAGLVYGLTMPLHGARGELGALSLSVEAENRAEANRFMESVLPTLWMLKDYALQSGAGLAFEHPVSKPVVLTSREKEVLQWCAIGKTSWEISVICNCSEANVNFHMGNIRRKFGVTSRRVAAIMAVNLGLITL", "experiment": "Two plasmid E. coli LasR reporter (luciferase)", "format": "cell-based, P. aeruginosa", "settings": "read-out: Percent Activity (LasR reporter)", "description": "(§1) A two plasmid E. coli reporter system was constructed, in which LasR or RhlR was expressed under an arabinose inducible promoter (e.g., LasR or RhlR was cloned into a pBAD-A vector and expressed upon addition of arabinose) in the presence of a LasR-dependent or RhlR-dependent promoter fused to luciferase (e.g., cloned into a pCS26 vector). Upon the addition of arabinose and in the presence of AI, LasR or RhlR were expressed, formed a complex with the cognate AI, underwent dimerization, and activated transcription of the reporter construct. All potential inhibitors were tested at 100 μM. The percent activity was reported relative to wild-type (100%).\n(§2) A sample experimental protocol for the RhlR reporter (see, e.g., Table 5A2) or for the LasR reporter (see, e.g., Table 5A1).\n(§3) A clean plate was filled with water, 70% ethanol, LB, and primed with cultured cells to ensure that initial dispensing led to the appropriate volume of cells being added to the wells. 20 μL of this solution was dispensed into appropriate wells in a 384-well plate that contained small molecule antagonists. 20 μL of this solution was dispensed into wells intended for a positive control that contain only DMSO. To the culture that was saved for negative control, arabinose was added to 0.1%. An equal volume of DMSO was added to the culture, relative to the amount of AI added to the other culture. 20 μL of culture was dispensed into wells intended for a negative control that contained only DMSO and no small molecule QS inhibitors. Plates were incubated at 30° C. in the plate shaker. Plates were read using a 384 LUM/OD 600 setting on the plate reader after 4 hours of induction.\nFor data analysis, the average and standard deviation for each of the control groups were determined. In a screen, for each data point, the number of standard deviations from the mean was determined to determine if the inhibitor was a “hit”. In a dose response curve, for each data point, the percent inhibition was determined: 1−(X/M), where X=single data point and M=is the mean of the AI only control group. The dose response curve was then plotted as a function of % inhibition (y) v. [inhibitor] on a log scale (x)."}, "[2]": {"tested_on": "LasR and RhlR", "experiment": "Receptor specific reporter assays for LasR and RhlR activity (stated in words)", "format": "cell-based, P. aeruginosa", "description": "wherein R may be H or OH, and two or more of the R substituents of a given compound are OH; R′ is H or OH; and R″ is H or OH. […] A variety of compounds were obtained and tested for activity (e.g., inhibition of receptor specific reporter assays for LasR and RhlR activity).\nas §1"}, "[3]": {"molecular_target": "T1, LasR", "experiment": "10-point autoinducer dose response on LasR reporter with QS inhibitor (competition)", "format": "cell-based, P. aeruginosa", "settings": "inhibitor at 100 μM; increasing concentrations of AI", "description": "FIG. 4. QS inhibitors bind non-competitively to LasR. A 10-point dose response curve with increasing concentrations of autoinducer 3-O—C12-HSL (AI) was generated for a variety of QS small molecule inhibitors. In this figure, curve C12 (filled circle) corresponds to the absence of inhibitor. […] Instead, the inhibitors bind elsewhere on LasR to prevent LasR-dependent transcription.\nUsing known molecular biology techniques, assays were performed to determine whether binding of the small molecule QS inhibitors and the AIs occurred by a competitive or by another inhibitory mechanism (see, e.g., FIG. 4).\nThus, a 10-point dose response curve with concentrations of AI ranging from 10 pM to 5 nM was generated for a variety of QS small molecule inhibitors. Curve C12 (dotted filled line) corresponds to the absence of inhibitor. […] Instead, the inhibitors bind elsewhere on LasR to prevent LasR-dependent transcription."}, "[4]": {"molecular_target": "T2, RhlR (Pseudomonas aeruginosa, UniProt P54292)", "T2 construct": "expressed in transfected cells; host or cells: E. coli TOP10 carrying pBAD-A 6xHIS-rhlR and pCS26 prhlA-luxCDABE", "T2 sequence (P54292 whole entry)": "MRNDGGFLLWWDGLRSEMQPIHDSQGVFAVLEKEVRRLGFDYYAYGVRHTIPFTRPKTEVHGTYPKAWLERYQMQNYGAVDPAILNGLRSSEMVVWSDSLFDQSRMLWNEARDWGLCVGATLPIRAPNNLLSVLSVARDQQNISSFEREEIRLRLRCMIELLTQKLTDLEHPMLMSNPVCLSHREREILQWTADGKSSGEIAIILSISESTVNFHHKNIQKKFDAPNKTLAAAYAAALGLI", "experiment": "Two plasmid E. coli RhlR reporter (luciferase)", "format": "cell-based, P. aeruginosa", "settings": "read-out: Percent Activity (RhlR reporter)", "description": "as §1, §2\nFor the RhlR reporter, strains were re-streaked on LB+appropriate antibiotic before each experiment and grown overnight at 37° C. Three colonies were picked and a 3 mL overnight culture in LB+appropriate antibiotic was started. The culture was grown overnight at 37° C. The overnight culture was back-diluted 1:1000 into fresh LB+appropriate antibiotic in an appropriate volume, depending on the number of plates being screened. Each well in a 384 well plate received about 20 μL of culture. An additional 25 mL of culture was reserved for priming the plate filler. The culture was grown at 37° C. until OD600˜0.5, which took about 4 hrs. A 384-well plate was prepared. Stock concentrations of molecules (e.g., small molecule inhibitors) were 10 mM.\nFor a 10-point dose response for the RhlR reporter, a 1:3 dilution of molecule:DMSO (333 μL of stock molecule, 667 μL of DMSO using a 1 mL pipetteman) was used for accurate dispensing by the robot dispenser. Upon a prompt by the software, the appropriate concentration of each molecule was added. Each well was normalized with a DMSO standard to bring the total % volume of DMSO up to 1% using the robot. Plates were set aside with dispensed drugs until the cells were ready. Once the cells reached an OD600 of 0.5, an appropriate amount of cell culture was dispensed for screening into an Erlenmeyer flask. (Extra culture was saved for a negative control.) Arabinose was added to 0.1% final concentration (1:1000 dilution from stock solution), and AI was added to 10 μM (ED75) from a 10 mM stock. The components of the flask were mixed together by swirling. As mentioned previously, other concentrations of AIs may be suitable, e.g., the concentrations may be in the range of 2 uM to 100 uM, from 10 uM to 100 uM or from 2 uM to 10 uM. In some embodiments, 2 nM of 3-O—C12-HSL (for LasR) and 10 uM of C4-HSL (for RhlR) were used.\nas §3\nFor data analysis, the average and standard deviation for each of the control groups were determined. In a screen, for each data point, the number of standard deviations from the mean was determined to determine if the inhibitor was a “hit”. In a dose response curve, for each data point, the percent inhibition was determined: 1−(X/M), where X=single data point and M=is the mean of the AI only control group. […]"}, "[5]": {"tested_on": "Wild-type P. aeruginosa pyocyanin production", "experiment": "Pyocyanin virulence factor production", "format": "cell-based", "settings": "100 μM overnight, back diluted, grown 18 hrs with inhibitor", "description": "FIG. 6. QS inhibitors reduce the level of virulence factor production in P. aeruginosa. The ability of the small molecule inhibitors to reduce virulence factor production by monitoring pyocyanin production was assessed.\nThe ability of the small molecule QS inhibitors to reduce virulence factor production by monitoring production of pyocyanin as a representative virulence factor was assessed. Wild-type P. aeruginosa was incubated with the indicated molecules at 100 μM overnight, back diluted, and grown for 18 hrs in the presence of QS inhibitor.\nBy varying the concentration of QS inhibitors, dose dependence curves were generated."}}}
{"compound": "O=c1cc(-c2ccccc2)oc2cc(O)c(O)c(O)c12", "note": "[Molecule 46, Baicalein]", "values": [{"measurement": "remaining activity at 100 µM", "setting": "[1]", "result": 46.7, "unit": "%"}, {"measurement": "activity (inhibition of receptor specific reporter assays for LasR and RhlR activity)", "setting": "[2]", "result": "inhibit both LasR and RhlR"}, {"measurement": "competition with autoinducer 3-O—C12-HSL for LasR", "setting": "[3]", "result": "did not compete"}, {"measurement": "remaining activity at 100 µM", "setting": "[4]", "result": 57.4, "unit": "%"}, {"measurement": "pyocyanin production", "setting": "[5]", "result": "inhibit pyocyanin to varying degrees"}]}
